Assay results: paper PMC12516728, “Harnessing the Estradienone Scaffold to Develop Dual GPBAR1 and LIFR Modulators for Liver Fibrosis” (Journal of Medicinal Chemistry, 2025)
Read-outs that look alike come from different tables or passages of the source.

Tests used:
LIFR = biological target: T1, LIFR (Homo sapiens, UniProt P42702); experiment: Luciferase reporter (transactivation) assay on HepG2 cells transfected with LIFR; assay type: cell-based; settings: relative to LIF as 100%, mean ± SD
T1 construct: expressed in transfected cells; host or cells: HepG2
T1 sequence (P42702 45-1097): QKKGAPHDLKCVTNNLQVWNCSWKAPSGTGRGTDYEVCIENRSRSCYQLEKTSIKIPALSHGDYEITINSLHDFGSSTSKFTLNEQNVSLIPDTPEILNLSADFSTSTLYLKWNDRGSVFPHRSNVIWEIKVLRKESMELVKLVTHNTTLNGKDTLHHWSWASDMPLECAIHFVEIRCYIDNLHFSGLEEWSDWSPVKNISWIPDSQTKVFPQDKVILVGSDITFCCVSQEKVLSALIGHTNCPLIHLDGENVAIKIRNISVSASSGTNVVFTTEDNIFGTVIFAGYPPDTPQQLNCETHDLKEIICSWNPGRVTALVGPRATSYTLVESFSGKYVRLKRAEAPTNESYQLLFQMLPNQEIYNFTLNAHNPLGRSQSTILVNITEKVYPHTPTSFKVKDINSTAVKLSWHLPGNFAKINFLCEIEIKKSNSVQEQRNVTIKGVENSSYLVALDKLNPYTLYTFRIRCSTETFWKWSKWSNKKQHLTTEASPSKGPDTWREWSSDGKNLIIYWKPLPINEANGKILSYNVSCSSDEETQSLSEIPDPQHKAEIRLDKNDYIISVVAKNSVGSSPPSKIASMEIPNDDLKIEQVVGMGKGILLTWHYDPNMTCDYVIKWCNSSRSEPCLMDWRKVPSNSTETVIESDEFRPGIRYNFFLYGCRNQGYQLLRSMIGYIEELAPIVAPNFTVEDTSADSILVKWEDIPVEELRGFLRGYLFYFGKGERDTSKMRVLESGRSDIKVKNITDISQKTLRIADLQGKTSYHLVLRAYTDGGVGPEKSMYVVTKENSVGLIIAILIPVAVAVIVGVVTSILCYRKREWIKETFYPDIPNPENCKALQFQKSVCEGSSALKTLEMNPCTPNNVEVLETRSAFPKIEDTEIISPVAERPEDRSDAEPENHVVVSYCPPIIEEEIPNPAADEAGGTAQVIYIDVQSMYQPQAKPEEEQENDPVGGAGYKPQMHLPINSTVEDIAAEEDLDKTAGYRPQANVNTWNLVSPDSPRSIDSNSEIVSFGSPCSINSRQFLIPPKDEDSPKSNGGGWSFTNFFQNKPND
Description: (§1) Hek293T cells, obtained from ATCC (Manassas, VA, USA), were cultured in a D-MEM medium (Sigma-Merk Life Science S.r.l., Milan, Italy) enriched with 10% fetal bovine serum, 1% L-glutamine, and 1% penicillin/streptomycin. HEPG2 cells, also from ATCC, were grown in an MEM medium (Euroclone, reference ECB2071L) supplemented with 10% fetal bovine serum (Euroclone, reference ECS5000L), 1% L-glutamine (Euroclone, reference ECB3000D), and 1% penicillin/streptomycin (Euroclone, reference ECB3001D). All cultures were maintained in a humidified environment with 5% CO2 at 37 °C. Additionally, it was confirmed that the cells were free from Mycoplasma contamination, as verified using the Mycoplasma PCR Detection Kit (Aurogene, reference G238).
(§2) The luciferase reporter gene assay protocol takes place over four days. On the first day, HEPG2 or HEK293T cells are seeded in a 24-well plate at a density of 7.5 × 10^4 cells/well for HEPG2 or 2.5 × 10^4 cells/well for HEK293T. On the second day, cells are transiently transfected, preparing a separate mix for each receptor. To assess the phosphorylation of STAT3 signaling, HEPG2 cells were transfected with 200 ng of the reporter vector containing the Pgl4.47 response element, along with 100 ng each of LIFR, IL6ST (gp130), and pGL4.70 (Promega, Madison, WI), a vector encoding the human Renilla gene. The following day, the cells were stimulated with 10 ng/mL LIF, either alone or in combination with 2o at concentrations of 0.1, 1, 10, 25, and 50 μM, to generate a dose–response curve. For GPBAR1 agonism, HEK293T cells were transfected with 200 ng of the reporter vector pG29-CRE-LUC, 150 ng of pcmvsport-hTGR5, and 150 ng of pGL4.70, the human Renilla gene. The following day, cells were stimulated with 10 μM TLCA alone as a positive control and compound 2o at concentrations of 1 and 10 nM, as well as 0.1, 1, 2.5, 5, 10, 20, and 30 μM, to generate a dose–response curve. On the final day, cellular lysates were analyzed for luciferase and Renilla activities using the Dual-Luciferase Reporter Assay System (Promega, Madison, WI). pLuminescence was measured with a Glomax 20/20 luminometer (Promega, Madison, WI), and luciferase activities were normalized to Renilla activities.

GPBAR1 = biological target: T2, GPBAR1 (Homo sapiens, UniProt Q8TDU6); experiment: Luciferase reporter (transactivation) assay on HEK293T cells transfected with GPBAR1; assay type: cell-based; settings: HEK-293T, relative to TLCA (10 μM) as 100%, mean ± SD, na = not active, read-out: GPBAR1 eff % (10 μM)
T2 construct: expressed in transfected cells; host or cells: HEK293T
T2 sequence (Q8TDU6 1-330): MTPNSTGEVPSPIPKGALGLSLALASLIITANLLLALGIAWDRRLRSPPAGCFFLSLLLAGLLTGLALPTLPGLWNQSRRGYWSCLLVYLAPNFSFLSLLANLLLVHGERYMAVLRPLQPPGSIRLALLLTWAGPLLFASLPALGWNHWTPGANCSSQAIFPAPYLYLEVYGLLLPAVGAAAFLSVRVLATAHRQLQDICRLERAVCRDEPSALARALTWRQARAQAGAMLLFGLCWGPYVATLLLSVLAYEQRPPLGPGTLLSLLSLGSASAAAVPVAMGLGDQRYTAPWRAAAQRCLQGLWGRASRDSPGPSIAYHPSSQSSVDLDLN
Description: as §1, §2

[1] = biological target: T3, LIF-LIFR interaction (recombinant human LIFR His-Tag / biotinylated LIF) (Homo sapiens, UniProt P42702); experiment: Cell-free AlphaScreen assay of LIF-LIFR interaction; assay type: binding; settings: for inhibition at 10 µM: read-out: % LIFR inhibition (10 μM); for inhibition at 50 µM: read-out: % LIFR inhibition (50 μM)
T3 construct: purchased Sino Biological (LIFR); R&D Systems (LIF)
T3 sequence (P42702 45-833 limits assumed): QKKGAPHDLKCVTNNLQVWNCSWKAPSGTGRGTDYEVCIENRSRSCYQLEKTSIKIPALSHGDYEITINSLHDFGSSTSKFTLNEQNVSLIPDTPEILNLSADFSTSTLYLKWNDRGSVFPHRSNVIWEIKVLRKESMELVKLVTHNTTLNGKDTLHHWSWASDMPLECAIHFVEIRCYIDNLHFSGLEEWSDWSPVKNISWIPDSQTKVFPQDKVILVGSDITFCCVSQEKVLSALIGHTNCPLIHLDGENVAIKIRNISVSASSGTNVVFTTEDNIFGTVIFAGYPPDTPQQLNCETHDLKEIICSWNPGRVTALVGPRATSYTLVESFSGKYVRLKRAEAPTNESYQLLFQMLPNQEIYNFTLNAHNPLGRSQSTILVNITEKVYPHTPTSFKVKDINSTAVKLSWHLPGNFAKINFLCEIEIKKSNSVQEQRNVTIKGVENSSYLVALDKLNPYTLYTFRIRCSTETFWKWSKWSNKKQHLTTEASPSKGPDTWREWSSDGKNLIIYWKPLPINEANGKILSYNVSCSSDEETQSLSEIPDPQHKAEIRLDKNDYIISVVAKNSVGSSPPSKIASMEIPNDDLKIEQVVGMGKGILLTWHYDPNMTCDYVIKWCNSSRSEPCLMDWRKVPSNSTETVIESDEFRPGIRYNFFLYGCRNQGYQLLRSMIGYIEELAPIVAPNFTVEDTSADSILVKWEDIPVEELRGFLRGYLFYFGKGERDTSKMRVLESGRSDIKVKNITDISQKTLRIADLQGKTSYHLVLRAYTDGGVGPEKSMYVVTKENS
Description: Recombinant human LIFR (His-Tag) and LIF (biotinylated) were purchased from Sino Biologicals (Sino Biological Europe GmbH, Dusseldorf, Germany) and R&D Systems (Abingdon, UK), respectively, and both were reconstituted as required by the manufacturer. Inhibition of LIFR/LIF binding was measured by AlphaScreen, in white, low-volume, 384-well AlphaPlates (PerkinElmer, Waltham, MA, USA) using a final volume of 15 μL and an assay buffer containing 25 mM Hepes (pH 7.4), 100 mM NaCl, and 0.005% Kathon. The concentration of DMSO in each well was maintained at 5% v/v. […] Then, streptavidin donor beads were added (final concentration 20 ng/μL), and the plate was incubated in the dark for 2 h and then read in an EnSpire Alpha multimode plate reader (PerkinElmer, Waltham, MA, USA). […] Each concentration was tested in triplicate (N = 3). When present, outliers were removed, resulting in N = 2. Data, reported as averaged intensity values ± standard deviation and N, were exploited to fit the curves through GraphPad Prism 8.

SMILES | inhibition at 10 µM (LIFR) [%] | Emax at 10 µM (GPBAR1) [%] | IC50 [1] [µM] | inhibition at 10 µM [1] [%] | inhibition at 50 µM [1] [%] | inhibition at 10 µM ([1]; 10 μM, LIF-LIFR signal without compound set as 100% interaction, mean ± SD) [%] | inhibition at 50 µM ([1]; 50 μM, LIF-LIFR signal without compound set as 100% interaction, mean ± SD) [%] | IC50 ([1]; inhibition of LIF-LIFR interaction, ± SD, read-out: IC50) [µM]
C[C@]12C[C@H](Cc3ccc(O)cc3)C3=C4CCC(=O)C=C4CC[C@H]3[C@@H]1CCC2=O [Compound 1e, 11β-(4-Hydroxybenzyl)estra-4,9-dien-3,17-dione] | 29.1 ± 1.4 | 9 ± 4 | 45.6 ± 10.5 | 29.3 ± 6.7 | 35.1 ± 13 |  |  | 
COC(=O)c1cccc(-c2ccc([C@H]3C[C@]4(C)C(=O)CC[C@H]4[C@@H]4CCC5=CC(=O)CCC5=C43)cc2)c1 [Compound 2s] | 80.8 ± 0.9 | > 50 | 0.159 ± 0.06 | 63.6 ± 4.1 | 74.3 ± 14.1 |  |  | 
CC#C[C@]1(O)CC[C@H]2[C@@H]3CCC4=CC(=O)CCC4=C3[C@@H](c3ccc(N(C)C)cc3)C[C@@]21C [Mifepristone, mifepristone, reference compound] |  |  |  |  |  | 70.5 ± 3.7 | 94.6 ± 7.3 | 0.366 ± 0.063
CN(C)c1ccc([C@H]2C[C@]3(C)C(=O)CC[C@H]3[C@@H]3CCC4=CC(=O)CCC4=C32)cc1 [Compound 1b] | 104 ± 2.5 | 21.7 ± 0.3 | 0.535 ± 0.209 | 60 ± 14.7 | 84.3 ± 1.4 |  |  | 
C[C@]12C[C@H](c3ccc(-c4ccc(Br)nc4)cc3)C3=C4CCC(=O)C=C4CC[C@H]3[C@@H]1CCC2=O [Compound 2d] | 88.8 ± 3.4 |  | 5.54 ± 1.39 | 42.1 ± 2.3 | 64.4 ± 7.5 |  |  | 
C[C@]12C[C@H](c3ccc(I)cc3)C3=C4CCC(=O)C=C4CC[C@H]3[C@@H]1CCC2=O [Compound 1f, 11β-(4-Iodophenyl)estra-4,9-dien-3,17-dione] | 89.9 ± 1.2 |  | 9.78 ± 1.75 | 45.4 ± 1.3 | 61.3 ± 7.5 |  |  | 
C[C@]12C[C@H](c3ccccc3)C3=C4CCC(=O)C=C4CC[C@H]3[C@@H]1CCC2=O [Compound 1c, 11β-Phenylestra-4,9-dien-3,17-dione] | 76.8 ± 6.7 | 35 ± 1.5 | 26.9 ± 3.12 | 34.3 ± 11.2 | 40.5 ± 4.18 |  |  | 
COc1ccc(C[C@H]2C[C@]3(C)C(=O)CC[C@H]3[C@@H]3CCC4=CC(=O)CCC4=C23)cc1 [Compound 1d, 11β-(4-Methoxybenzyl)estra-4,9-dien-3,17-dione] | 92 ± 7 |  | 43.1 ± 4.6 | 26.5 ± 6.2 | 41.1 ± 8 |  |  | 
C[C@]12C[C@H](c3ccc(C4CC4)cc3)C3=C4CCC(=O)C=C4CC[C@H]3[C@@H]1CCC2=O [Compound 1g, 11β-(4-Cyclopropylphenyl)-estra-4,9-dien-3,17-dione] | 51.1 ± 1.4 | 16.5 ± 1.5 | 9.42 ± 2.32 | 45.1 ± 1.9 | 62.1 ± 6.1 |  |  | 
C[C@]12C[C@H](c3ccc(-c4ccccc4)cc3)C3=C4CCC(=O)C=C4CC[C@H]3[C@@H]1CCC2=O [Compound 1a] | 33.8 ± 3.7 | 44.8 ± 5.1 | 1.42 ± 0.2 | 62.4 ± 9.2 | 76.4 ± 4.1 |  |  | 
C[C@]12C[C@H](c3ccc(-c4cccc(C(=O)O)c4)cc3)C3=C4CCC(=O)C=C4CC[C@H]3[C@@H]1CCC2=O [Compound 2t] | 38.7 ± 0.6 | 20.4 ± 1.4 | 24.8 ± 2.8 | 22.8 ± 5.1 | 62.3 ± 7.3 |  |  | 
